Data reported in patent US20020137929A1, “1 - (3-heterocyclylphenyl) isothiourea, -isourea, -guanidine and -amidine herbicidal agents” (Intellectual Property Department, BASF Aktiengesellschaft, priority 1998, published 2002).

Assays:
AMBEL (Ragweed, Common) = experiment: Postemergence herbicidal evaluation; type: in vivo, Ambrosia artemisifolia; conditions: postemergence
Procedure, shortened: (§1)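 Compound is applied as a foliar spray to seedlings about two weeks old, formulated in equal parts acetone and water with 0.5% TWEEN 20 and delivered at 40 psi to give about 0.0156–0.500 kg per hectare. Injury is rated visually 0–9 after four to five weeks.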

CASOB (Sicklepod) [1] = experiment: Postemergence herbicidal evaluation; type: in vivo, Cassia obtusifolia; conditions: postemergence
Procedure, shortened: as §1

[2] = tested on: CHEAL (Lambsquarters, Common); experiment: Postemergence herbicidal evaluation; type: in vivo, Chenopodium album; conditions: postemergence
Procedure, shortened: as §1

GALAP (Galium) [3] = experiment: Postemergence herbicidal evaluation; type: in vivo, Galium aparine; conditions: postemergence
Procedure, shortened: as §1

ECHCG (Barnyardgrass) = experiment: Postemergence herbicidal evaluation; type: in vivo, Echinochloa crus-galli; conditions: postemergence
Procedure, shortened: as §1

SETVI (Foxtail, Green) = experiment: Postemergence herbicidal evaluation; type: in vivo, Setaria viridis; conditions: postemergence
Procedure, shortened: as §1

[4] = tested on: GLXMAW (Soybean, Williams); experiment: Postemergence herbicidal evaluation; type: in vivo, Glycine max, (L.) Merr. cv Williams; conditions: postemergence
Procedure, shortened: as §1

ORYSAT (Rice, Tebonnet) = experiment: Postemergence herbicidal evaluation; type: in vivo, Oryza sativa, (L.) Tebonnet; conditions: postemergence
Procedure, shortened: as §1

CASOB (Sicklepod) [5] = experiment: Preemergence herbicidal evaluation; type: in vivo, Cassia obtusifolia; conditions: rated 4-5 weeks after treatment
Procedure, shortened: (§2)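 Preemergence soil application of compound, sprayed in aqueous acetone at rates equivalent to about 0.0156 to 0.500 kg per hectare onto freshly sown cups. Plant response was judged by eye on a 0-9 scale four to five weeks later.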

GALAP (Galium) [6] = experiment: Preemergence herbicidal evaluation; type: in vivo, Galium aparine; conditions: rated 4-5 weeks after treatment
Procedure, shortened: as §2

ZEAMX (Corn, Field) = experiment: Preemergence herbicidal evaluation; type: in vivo, Zea mays; conditions: rated 4-5 weeks after treatment
Procedure, shortened: as §2

CYPIR (Rice Flatsedge) = experiment: Preemergence weed control under flooded paddy conditions; type: in vivo, Cyperus iria; conditions: rated 3-4 weeks after treatment
Procedure, shortened: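 Flooded-pot preemergence screen with silt loam and seeds in the upper 0.5 cm. Dose about 0.0313 to 0.500 kg/ha, delivered into flood water; visual 0-9 score after 3 to 4 weeks.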

CYPSE (Flatsedge) = experiment: as above; type: in vivo, Cyperus serotinus; conditions: rated 3-4 weeks after treatment
Procedure, shortened: (§3)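 Silt loam, seeds in top 0.5 cm; flood held 1.5-3 cm; test cpd as acetone/water 50/50 into flood water, ~0.0313-0.500 kg/ha a.i.; greenhouse 3-4 wk; visual 0-9 score vs control.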

[7] = tested on: SAGPY (Arrowhead (Pygmaea)); experiment: as above; type: in vivo, Sagittaria pygmaea; conditions: rated 3-4 weeks after treatment
Procedure, shortened: as §3

Compound: CCCCOC(=O)CN1C(=O)CSC1=Nc1cc(-n2c(=O)cc(C(F)(F)F)n(C)c2=O)c(F)cc1Cl [Compound 111]
- herbicidal rating AMBEL (AMBEL (Ragweed, Common); rate 0.0158 kg/ha): 4.0
- herbicidal rating AMBEL (AMBEL (Ragweed, Common); rate 0.0315 kg/ha): 6.0
- herbicidal rating AMBEL (AMBEL (Ragweed, Common); rate 0.0630 kg/ha): 9.0
- herbicidal rating CASOB (CASOB (Sicklepod) [1]; rate 0.0158 kg/ha): 0.0
- herbicidal rating CASOB (CASOB (Sicklepod) [1]; rate 0.0315 kg/ha): 1.0
- herbicidal rating CASOB (CASOB (Sicklepod) [1]; rate 0.0630 kg/ha): 1.0
- herbicidal rating CHEAL ([2]; rate 0.0158 kg/ha): 2.0
- herbicidal rating CHEAL ([2]; rate 0.0315 kg/ha): 6.0
- herbicidal rating CHEAL ([2]; rate 0.0630 kg/ha): 7.0
- herbicidal rating GALAP (GALAP (Galium) [3]; rate 0.0158 kg/ha): 0.0
- herbicidal rating GALAP (GALAP (Galium) [3]; rate 0.0315 kg/ha): 0.0
- herbicidal rating GALAP (GALAP (Galium) [3]; rate 0.0630 kg/ha): 1.0
- herbicidal rating ECHCG (ECHCG (Barnyardgrass); rate 0.0158 kg/ha): 3.0
- herbicidal rating ECHCG (ECHCG (Barnyardgrass); rate 0.0315 kg/ha): 4.0
- herbicidal rating ECHCG (ECHCG (Barnyardgrass); rate 0.0630 kg/ha): 9.0
- herbicidal rating SETVI (SETVI (Foxtail, Green); rate 0.0158 kg/ha): 1.0
- herbicidal rating SETVI (SETVI (Foxtail, Green); rate 0.0315 kg/ha): 9.0
- herbicidal rating SETVI (SETVI (Foxtail, Green); rate 0.0630 kg/ha): 9.0
- herbicidal rating GLXMAW ([4]; rate 0.0158 kg/ha): 6.0
- herbicidal rating GLXMAW ([4]; rate 0.0315 kg/ha): 6.0
- herbicidal rating GLXMAW ([4]; rate 0.0630 kg/ha): 6.0
- herbicidal rating ORYSAT (ORYSAT (Rice, Tebonnet); rate 0.0158 kg/ha): 2.5
- herbicidal rating ORYSAT (ORYSAT (Rice, Tebonnet); rate 0.0315 kg/ha): 4.5
- herbicidal rating ORYSAT (ORYSAT (Rice, Tebonnet); rate 0.0630 kg/ha): 4.5
- Preemergence herbicidal rating CASOB (CASOB (Sicklepod) [5]; rate 0.0156 kg/ha): 0.0
- Preemergence herbicidal rating CASOB (CASOB (Sicklepod) [5]; rate 0.0313 kg/ha): 0.0
- Preemergence herbicidal rating CASOB (CASOB (Sicklepod) [5]; rate 0.0625 kg/ha): 1.0
- Preemergence herbicidal rating CASOB (CASOB (Sicklepod) [5]; rate 0.1250 kg/ha): 1.0
- Preemergence herbicidal rating CASOB (CASOB (Sicklepod) [5]; rate 0.2500 kg/ha): 9.0
- Preemergence herbicidal rating GALAP (GALAP (Galium) [6]; rate 0.0156 kg/ha): 0.0
- Preemergence herbicidal rating GALAP (GALAP (Galium) [6]; rate 0.0313 kg/ha): 0.0
- Preemergence herbicidal rating GALAP (GALAP (Galium) [6]; rate 0.0625 kg/ha): 0.0
- Preemergence herbicidal rating GALAP (GALAP (Galium) [6]; rate 0.1250 kg/ha): 6.0
- Preemergence herbicidal rating GALAP (GALAP (Galium) [6]; rate 0.2500 kg/ha): 7.0
- Preemergence herbicidal rating ZEAMX (ZEAMX (Corn, Field); rate 0.0156 kg/ha): 0.0
- Preemergence herbicidal rating ZEAMX (ZEAMX (Corn, Field); rate 0.0313 kg/ha): 0.0
- Preemergence herbicidal rating ZEAMX (ZEAMX (Corn, Field); rate 0.0625 kg/ha): 0.0
- Preemergence herbicidal rating ZEAMX (ZEAMX (Corn, Field); rate 0.1250 kg/ha): 4.0
- Preemergence herbicidal rating ZEAMX (ZEAMX (Corn, Field); rate 0.2500 kg/ha): 4.0
- CYPIR herbicidal effect rating (CYPIR (Rice Flatsedge); 0.0313 kg/ha): 0.0
- CYPIR herbicidal effect rating (CYPIR (Rice Flatsedge); 0.0625 kg/ha): 3.0
- CYPIR herbicidal effect rating (CYPIR (Rice Flatsedge); 0.1250 kg/ha): 4.0
- CYPIR herbicidal effect rating (CYPIR (Rice Flatsedge); 0.2500 kg/ha): 5.0
- CYPSE herbicidal effect rating (CYPSE (Flatsedge); 0.0625 kg/ha): 4.0
- CYPSE herbicidal effect rating (CYPSE (Flatsedge); 0.1250 kg/ha): 9.0
- CYPSE herbicidal effect rating (CYPSE (Flatsedge); 0.2500 kg/ha): 9.0
- SAGPY herbicidal effect rating ([7]; 0.0313 kg/ha): 3.0
- SAGPY herbicidal effect rating ([7]; 0.0625 kg/ha): 4.0
- SAGPY herbicidal effect rating ([7]; 0.1250 kg/ha): 5.0
- SAGPY herbicidal effect rating ([7]; 0.2500 kg/ha): 6.0
